# According to paper PMC11674305, “Inhibition of Neural Crest Cell Migration by Strobilurin Fungicides and Other Mitochondrial Toxicants” (Cells, 2024):
# Several values for one entry are separate records, joined by “and”; a condition that tells them apart may be missing. Equal entries are not always repeated. Where two headings read alike, the source gives them in different places.
# Legend:
# Assay type in all cases: cell-based, human
# neural crest cells (NCC) [1] = assay: cMINC (UKN2) assay: circular migration of neural crest cells, with viability; settings: for Migration / Viability: Pre-Screen 1, single concentration 1:1000 of stock, in most cases 100 μM; for BMC25 (M): migration; for Ratio: migration/cytotoxicity ratio, hit requires ≥ 1.3, HTC used where no viability effect
# Experimental: The research group initially developed the first version of the test in 2012 [40]. The test has been further improved and characterized. To perform the cMINC assay, NCCs were thawed in N2-S Medium and seeded on the day of migration-1 (DoM-1) on a 96-well polystyrene plate (Corning, Glendale, AZ, USA) around stoppers, to create a cell-free area of 2 mm diameter (Platypus Technologies, Madison, WI, USA). The cells were resuspended in N2-S Medium supplemented with […] of the cytokines EGF and FGF, and then counted and seeded around the stoppers at a density of 95,000 cells/cm^2. After 24 h, the stoppers were removed, and the medium was exchanged. The removal of the stoppers initiates migration of the NCCs into the cell-free area. For the treatment, the 5x-concentrated toxicant solution was added to the medium 24 h after stopper removal.
# On day 2, cells were stained with 533 nM calcein-AM and 1 μg/mL H-33342 (both from Sigma, Steinheim, Germany) and observed using two different channels on the Cellomics ArrayScan VTI imaging microscope (Thermo Fisher, Pittsburgh, PA, USA) to assess viability and migration. For the migration, four pictures were taken in the region of interest (ROI) (5× magnification objective). Migration data were obtained using the software “Ringassay” (http://invitrotox.uni-konstanz.de/ (accessed on 3 November 2024)), which can estimate the previously cell-free area and count the number of H-33342 and calcein-AM double-positive cells. Cell viability was assessed by taking four pictures outside of the ROI with 10× magnification objective. Viable cells were defined as H-33342 and calcein-AM double-positive cells and calculated by an automatic algorithm of the ArrayScan VTI 700 Series software as described earlier. […] Each plate included wells for testing of negative (0.1% DMSO solvent) and positive controls (200 nM cytochalasin D) in addition to the wells for blinded samples. The data from control wells were used as acceptance criteria of the assay. […] Renormalization of the concentration–response curves was performed after a visual inspection that the two lowest test-concentration data points are in the no-effect range. The average response (relative to solvent control) of the lowest two test concentrations was calculated, and all other data points of the same curve were divided by this average value. The calculations of the benchmark concentrations 10 for viability (BMC10 (V)) and 25 for migration (BMC25 (M)) were performed with the online available BMC software (http://invitrotox.uni-konstanz.de/ (accessed on 4 November 2024)).
# neural crest cells (NCC) [2] = assay: Intracellular ATP measurement (CellTiterGlo); settings: at BMC10 (V) of cMINC; for ATP levels: after 60 min
# Experimental: Cells were seeded at a density of 20,000 cells/well. The NCCs were treated with the BMC10 (V) of the cMINC screen for one hour, six hours or 24 h. Then, a CellTiterGlo-Triton mix was prepared. Therefore, a 0.5% Triton solution in PBS was prepared, and the commercial reagent mix CellTiterGlo 2.0 (Promgea, Madison, WI, USA) was added in a 1:1 ratio. An amount of 50 µL/well of the mix was added to 100 µL of medium. The plate was shaken for two minutes, and 100 µL of the cell mixture was transferred to a white measurement plate. For the blank value, only medium with the mix was measured. Luminescence data of samples were normalized to DMSO solvent controls, and the ATP data are given in % relative to “untreated cells”.
# neural crest cells (NCC) [3] = assay: Seahorse oxygen consumption rate (mitochondrial stress test); settings: at BMC10 (V) of cMINC, after basal respiration recording
# Experimental: The Seahorse bioanalyzer simultaneously measures cellular oxygen consumption rates (OCR) and extracellular acidification rates (ECAR). Therefore, NCCs were seeded at least two days prior to the assays at a density of 80,000 cells/well on Seahorse XF96 V3 PS Cell Culture Microplates (Agilent, Santa Clara, CA, USA) in either glucose medium or galactose medium. After 24 h, the medium was exchanged. For the real-time ATP production rate and mitochondrial stress assay, the cartridge was hydrated at 0% CO2 and 37 °C, and the seahorse was turned on to stabilize the temperature one day prior. The medium was changed to Seahorse XF DMEM Medium (Agilent, Santa Clara, CA, USA) supplemented with 2 mM L-glutamine, 1 mM pyruvate and 18 mM glucose or galactose 1 h before the start of the assays. Directly before the start of the assay, the medium was exchanged again. The sensor cartridge was loaded with the test compounds anchored to the BMC10 (V) of the cMINC screen and the recommended concentrations of calibration compounds for a mitochondrial stress test. These were 5 μM oligomycin, 15 μM carbonyl cyanide p-trifluoro methoxyphenylhydrazone (FCCP) and 5 μM rotenone plus 5 μM antimycin A. Additionally, 1 μg/mL H-33342 was added to the rotenone and antimycin A injection to perform afterwards a cell count (Cellomics, Waltham, MA, USA), to which the data were normalized. Six technical replicates were used for control conditions, and three technical replicates were used for other samples. The software Seahorse Analytics (Agilent, Santa Clara, CA, USA) was used for the evaluation (https://seahorseanalytics.agilent.com (accessed on 30 October 2024)).
# neural crest cells (NCC) [4] = assay: Transwell migration assay (FBS chemoattractant, 6 h); settings: 200 nM, positive control
# Experimental: Cells were seeded at a density of 50,000 cells/well (150,000 cells/cm^2) into the upper chamber (insert) of the 96-well transwell plates (pore size 8 μm, polycarbonate membrane, Corning, Glendale, AZ, USA). The cells were stimulated to migrate through the membrane by medium supplemented with 5% of the chemoattractant fetal bovine serum (FBS) (PAA Laboratories, Pasching, Austria) in the lower chamber (reservoir). For testing of migration inhibition upon compound treatment, compounds were used at a concentration of BMC10 (V) of prior cMINC testing. Three technical replicates per condition were used. As a control for “unstimulated” migration, medium without any chemoattractant was tested. As an endpoint specific control for “inhibited” migration, CytoD with a concentration of 200 nM was used. After 6 h incubation time, the medium was aspirated, and reservoirs were washed with DPBS. Afterwards, reservoirs were filled with EDTA dissociation solution (DPBS supplemented with 0.1% 0.5 M EDTA UltraPure pH 8.0 (Thermo Fisher Scientific, Waltham, MA, USA), and 0.18% NaCl) containing 0.25 μL/mL calcein-AM and incubated for 30 min at 37 °C. The plates were then centrifuged at 300× g for 5 min (1200 rpm, Heraeus Multifuge 1 S-R, ThermoScientific) to remove migrated cells from the membrane. The tray with 96 wells of permeable inserts was removed, and the receiver plate was measured in the spectrophotometer (TECAN, Männedorf, Switzerland) with an emission wavelength of 520 nm. After subtraction of the blank values, the number of migrated cells was normalized to that of cells stimulated with FBS.
# To perform the experiments under mitochondria-dependent conditions, the cells were handled exactly in the same way, but the medium was adapted. The N2-S medium was adjusted, so that no glucose was present but galactose. The medium consisted of SILAC^TM Advanced DMEM/-F12 FLEX (Gibco/Fisher Scientific, Hampton, NH, USA), 15 μg/mL insulin, 400 μM GlutaMAX, 0.7 mM L-Arginine, 0.5 mM L-Lysine, 21.5 µM Phenol Red, 20 nM progesterone, 100 μM putrescine and 30 nM selenium, 92.5 μg/mL apotransferrin, 4.7 mg/mL galactose (18 mM). The cytokines 20 ng/mL EGF and 20 ng/mL FGF2 were always freshly added to each run.
# [5] = viability, primary screen, 24 h exposure, * = no effect up to highest tested concentration
# [6] = Homo sapiens, 24 h, primary screen, 24 h exposure, read-out: BMC25
SMILES,Migration (neural crest cells (NCC) [1]),Viability (neural crest cells (NCC) [1]),"BMC25 (M) (neural crest cells (NCC) [1]; primary screen, 24 h exposure)",Ratio (neural crest cells (NCC) [1]),effect on viability in the tested concentration range (neural crest cells (NCC) [1]; primary screen),BMC10 (V) (neural crest cells (NCC) [1]; [5]),ATP levels (neural crest cells (NCC) [2]),BMC25 (M) (neural crest cells (NCC) [1]; [6]),"BMC10 (V) (neural crest cells (NCC) [1]; human, 24 h)",effect on oxygen consumption rate (OCR) after injection (neural crest cells (NCC) [3]),decline of ATP (neural crest cells (NCC) [2]; after 1 h),decline of ATP (neural crest cells (NCC) [2]; after 24 h),decrease in ATP levels (neural crest cells (NCC) [2]; after 6 h),"IC25 (neural crest cells (NCC) [1]; Homo sapiens, 24 h, read-out: BMC25 (M))",reduced migration (neural crest cells (NCC) [4])
"CO/C=C(/C(=O)OC)c1ccccc1Oc1cc(Oc2ccccc2C#N)ncn1 [Azoxystrobin, azoxystrobin]",59 % of control,95 % of control,2.9e-05 M and 3e-05 M,3.5,did not reduce viability at all,> 100 µM,did not decrease,–,–,–,–,–,–,–,–
"CCOCn1c(-c2ccc(Cl)cc2)c(C#N)c(Br)c1C(F)(F)F [Chlorfenapyr, chlorfenapyr]",0 % of control,–,–,1.3,–,–,–,5.1e-06 M,6.8 µM,no decrease in OCR,> 25%,> 90%,–,–,–
"Cc1ccc(-c2c(Cl)nc(C#N)n2S(=O)(=O)N(C)C)cc1 [Cyazofamid, cyazofamid]",29 % of control,–,–,2.6,–,–,–,7.8e-06 M,20 µM,the OCR increased continuously,–,–,–,–,–
"Cc1nn(C)c(Oc2ccccc2)c1C=NOCc1ccc(C(=O)OC(C)(C)C)cc1 [Fenpyroximate, fenpyroximate]",38 % of control,95 % of control,–,1.9,–,7 µM and 6.6 µM,did not decrease,3e-06 M,–,completely shut down the mitochondrial respiration,–,–,> 25%,–,–
"O=[N+]([O-])c1cc(C(F)(F)F)c(Cl)c([N+](=O)[O-])c1Nc1ncc(C(F)(F)F)cc1Cl [Fluazinam, fluazinam]",0 % of control,2 % of control,–,2.0,–,0.8 µM,–,4e-07 M,–,no decrease in OCR,> 25%,> 90%,–,–,–
"CO/N=C(/C1=NOCCO1)c1ccccc1Oc1ncnc(Oc2ccccc2Cl)c1F [Fluoxastrobin, fluoxastrobin]",60 % of control,95 % of control,–,4.6,did not reduce viability at all,> 100 µM,–,2e-05 M,–,–,–,–,–,–,–
"CO/N=C(/C(=O)OC)c1ccccc1COc1ccccc1C [Kresoxim-methyl, kresoxim-methyl]",72 % of control,33 % of control,–,1.6,–,43 µM,–,2.7e-05 M,–,–,–,–,–,–,–
"COC(=O)N(OC)c1ccccc1COc1ccn(-c2ccc(Cl)cc2)n1 [Pyraclostrobin, pyraclostrobin]",72 % of control,97 % of control,–,2.6,–,44 µM,did not decrease,1.7e-05 M,–,–,–,–,–,–,–
"CC(C)(C)c1ccc(CSc2cnn(C(C)(C)C)c(=O)c2Cl)cc1 [Pyridaben, pyridaben]",58 % of control,–,–,1.8,–,–,–,4.7e-05 M,83 µM,completely shut down the mitochondrial respiration,–,–,–,–,–
"C=C(C)[C@H]1Cc2c(ccc3c2O[C@@H]2COc4cc(OC)c(OC)cc4[C@@H]2C3=O)O1 [Rotenone, rotenone]",0 % of control,0 % of control,–,1.9,–,0.1 µM,–,–,–,–,–,–,–,6e-08 M,–
"CON=C(C(=O)OC)c1ccccc1CON=C(C)c1cccc(C(F)(F)F)c1 [Trifloxystrobin, trifloxystrobin]",85 % of control,–,–,1.4,–,–,–,1.3e-05 M,18 µM,–,–,–,–,–,–
"C=C1[C@@H](C)[C@H]2[C@H](Cc3ccccc3)NC(=O)[C@]23[C@H](OC(C)=O)/C=C/[C@@](C)(O)C(=O)[C@@H](C)C/C=C/[C@H]3[C@@H]1O [cytochalasin D, Cytochalasin D]",–,–,–,–,–,–,–,–,–,–,–,–,–,–,75%
